Earlier results on one compound are cited in US20240174620A1, “SOLID FORMS OF SAFLUFENACIL-SODIUM AND SAFLUFENACIL-POTASSIUM, PROCESS OF PREPARATION AND USE THEREOF” (ADAMA AGAN LTD., priority 2021, published 2024).

Where two headings read alike, the source gives them in different places.

Assay in series [1]: not given
The source holds these as a separate data set.

Regarding `CC(C)N(C)S(=O)(=O)NC(=O)c1cc(-n2c(=O)cc(C(F)(F)F)n(C)c2=O)c(F)cc1Cl` [Saflufenacil], the pKa is 4.41. The “solubility in 1-octanol” value in series [1] (1-octanol, 20° C.) is less than 0.01 g/100 mL. Further, the solubility in acetone in series [1] (acetone, 20° C.) was 27.5 g/100 mL. Further, the solubility in acetonitrile in series [1] (acetonitrile, 20° C.) is reported as 19.4 g/100 mL. For the same compound, the “solubility in ethyl acetate” value in series [1] (ethyl acetate, 20° C.) is 6.55 g/100 mL. In addition, the “solubility in isopropyl alcohol” value in series [1] (isopropyl alcohol, 20° C.) is 0.25 g/100 mL. Moreover, in series [1] (methanol, 20° C.), the solubility in methanol is listed as 2.98 g/100 mL. The solubility in n-heptane in series [1] (n-heptane, 20° C.) is reported as less than 0.005 g/100 mL. Also, in series [1] (tetrahydrofurane, 20° C.), the solubility in tetrahydrofurane was 36.2 g/100 mL. Moreover, the solubility in toluene in series [1] (toluene, 20° C.) is given as 0.23 g/100 mL. Further, the solubility in water in series [1] (pH 5, 20° C.) was 0.0025 g/100 mL. Moreover, in series [1] (pH 7, 20° C.), the solubility in water was 0.21 g/100 mL.

One may read the pKa as the pH at which an ionisable group is half protonated.
